US12077503B2, “Substituted cyclic amides and their use as herbicides” (FMC CORPORATION, priority 2015, dated 2024)

What was measured:
Assay type in all cases: in vivo
[1] = system: redroot pigweed (Amaranthus retroflexus); assay: Test G Pre-Emergence Protocol; conditions: Amaranthus retroflexus, pre-emergence, 312 h, evaluated after 13 days; for pest or weed control at 15.625 g/ha: 15.625 g ai/ha; for pest or weed control at 15.625 g/ha / pest or weed control at 250 g/ha: read-out: Pigweed, Redroot damage rating (100=total damage to plant; 0=no damage to plant); for pest or weed control at 62.5 g/ha: 62.5 g ai/ha, 100=total damage to plant, 0=no damage to plant, read-out: plant damage rating, Pigweed, Redroot; for pest or weed control at 250 g/ha: 250 g ai/ha
Method in brief: (§1)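 Glasshouse pre-emergence test: soil-sown seeds, sprayed after 1 d at 15.625, 62.5 or 250 g/ha. Conditions 24/16° C day/night, 14 h light, 65% humidity, watering twice daily. Rating 13 d post-spray (100 = total damage).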

[2] = system: giant foxtail (Setaria faberi); assay: Test G Pre-Emergence Protocol; conditions: Setaria faberi, pre-emergence, 312 h, evaluated after 13 days; for pest or weed control at 15.625 g/ha: 15.625 g ai/ha; for pest or weed control at 15.625 g/ha / pest or weed control at 250 g/ha: read-out: Foxtail, Giant damage rating (100=total damage to plant; 0=no damage to plant); for pest or weed control at 62.5 g/ha: 62.5 g ai/ha, 100=total damage to plant, 0=no damage to plant, read-out: plant damage rating, Foxtail, Giant; for pest or weed control at 250 g/ha: 250 g ai/ha
Method in brief: as §1

[3] = system: barnyardgrass (Echinochloa crus-galli); assay: Test G Pre-Emergence Protocol; conditions: Echinochloa crus-galli, pre-emergence, 312 h, evaluated after 13 days; for pest or weed control at 15.625 g/ha: 15.625 g ai/ha, read-out: Barnyard grass damage rating (100=total damage to plant; 0=no damage to plant); for pest or weed control at 62.5 g/ha: 62.5 g ai/ha, 100=total damage to plant, 0=no damage to plant, read-out: plant damage rating, Barnyardgrass; for pest or weed control at 250 g/ha: 250 g ai/ha, read-out: Barnyardgrass damage rating (100=total damage to plant; 0=no damage to plant)
Method in brief: as §1

[4] = system: ivy-leaved morning glory (Ipomoea hederacea); assay: Test G Pre-Emergence Protocol; conditions: Ipomoea, pre-emergence, 312 h, evaluated after 13 days; for pest or weed control at 15.625 g/ha: 15.625 g ai/ha, read-out: Morning-glory, Ivy-leaved damage rating (100=total damage to plant; 0=no damage to plant); for pest or weed control at 62.5 g/ha: 62.5 g ai/ha, 100=total damage to plant, 0=no damage to plant, read-out: plant damage rating, Morningglory, Ivy-leaved; for pest or weed control at 250 g/ha: 250 g ai/ha, read-out: Morningglory, Ivy-leaved damage rating (100=total damage to plant; 0=no damage to plant)
Method in brief: as §1

corn (Zea mays) [5] = assay: Test G Pre-Emergence Protocol; conditions: Zea mays, pre-emergence, 312 h, evaluated after 13 days; for plant injury at 15.625 g/ha: 15.625 g ai/ha; for plant injury at 15.625 g/ha / plant injury at 250 g/ha: read-out: Corn damage rating (100=total damage to plant; 0=no damage to plant); for plant injury at 62.5 g/ha: 62.5 g ai/ha, 100=total damage to plant, 0=no damage to plant, read-out: plant damage rating, Corn; for plant injury at 250 g/ha: 250 g ai/ha
Method in brief: as §1

[6] = system: velvetleaf (Abutilon theophrasti); assay: Test G Pre-Emergence Protocol; conditions: Abutilon theophrasti, pre-emergence, 312 h, evaluated after 13 days; for pest or weed control at 15.625 g/ha: 15.625 g ai/ha; for pest or weed control at 15.625 g/ha / pest or weed control at 250 g/ha: read-out: Velvetleaf damage rating (100=total damage to plant; 0=no damage to plant); for pest or weed control at 62.5 g/ha: 62.5 g ai/ha, 100=total damage to plant, 0=no damage to plant, read-out: plant damage rating, Velvetleaf; for pest or weed control at 250 g/ha: 250 g ai/ha
Method in brief: as §1

[7] = system: redroot pigweed (Amaranthus retroflexus); assay: Test G Post-Emergence Protocol; conditions: Amaranthus retroflexus, post-emergence, 312 h; for pest or weed control at 15.625 g/ha: 15.625 g ai/ha, evaluated after 13 days (100=total damage to plant; 0=no damage to plant), read-out: Pigweed, Redroot damage rating; for pest or weed control at 62.5 g/ha: 62.5 g ai/ha, read-out: Pigweed, Redroot damage rating (100=total damage to plant; 0=no damage to plant); for pest or weed control at 62.5 g/ha / pest or weed control at 250 g/ha: evaluated after 13 days; for pest or weed control at 250 g/ha: 250 g ai/ha, read-out: damage to plant, Pigweed, Redroot (100=total damage to plant; 0=no damage to plant)
Method in brief: (§2)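 Sow in soil; grow 8 d (24/16 °C, 14 h light, 65% humidity); spray 15.625/62.5/250 g/ha in acetone:water 50:50 + 0.5% Tween 20; grow on, water twice daily; score damage 0–100 at 13 d.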

[8] = system: giant foxtail (Setaria faberi); assay: Test G Post-Emergence Protocol; conditions: Setaria faberi, post-emergence, 312 h; for pest or weed control at 15.625 g/ha: 15.625 g ai/ha, evaluated after 13 days (100=total damage to plant; 0=no damage to plant), read-out: Foxtail, Giant damage rating; for pest or weed control at 62.5 g/ha: 62.5 g ai/ha, read-out: Foxtail, Giant damage rating (100=total damage to plant; 0=no damage to plant); for pest or weed control at 62.5 g/ha / pest or weed control at 250 g/ha: evaluated after 13 days; for pest or weed control at 250 g/ha: 250 g ai/ha, read-out: damage to plant, Foxtail, Giant (100=total damage to plant; 0=no damage to plant)
Method in brief: as §2

[9] = system: barnyardgrass (Echinochloa crus-galli); assay: Test G Post-Emergence Protocol; conditions: Echinochloa crus-galli, post-emergence, 312 h; for pest or weed control at 15.625 g/ha: 15.625 g ai/ha, evaluated after 13 days (100=total damage to plant; 0=no damage to plant), read-out: Barnyardgrass damage rating; for pest or weed control at 62.5 g/ha: 62.5 g ai/ha, read-out: Barnyardgrass damage rating (100=total damage to plant; 0=no damage to plant); for pest or weed control at 62.5 g/ha / pest or weed control at 250 g/ha: evaluated after 13 days; for pest or weed control at 250 g/ha: 250 g ai/ha, read-out: damage to plant, Barnyardgrass (100=total damage to plant; 0=no damage to plant)
Method in brief: as §2

[10] = system: ivy-leaved morning glory (Ipomoea hederacea); assay: Test G Post-Emergence Protocol; conditions: Ipomoea, post-emergence, 312 h; for pest or weed control at 15.625 g/ha: 15.625 g ai/ha, evaluated after 13 days (100=total damage to plant; 0=no damage to plant), read-out: Morningglory, Ivy-leaved damage rating; for pest or weed control at 62.5 g/ha: 62.5 g ai/ha, read-out: Morningglory, Ivy-leaved damage rating (100=total damage to plant; 0=no damage to plant); for pest or weed control at 62.5 g/ha / pest or weed control at 250 g/ha: evaluated after 13 days; for pest or weed control at 250 g/ha: 250 g ai/ha, read-out: damage to plant, Morningglory, Ivy-leaved (100=total damage to plant; 0=no damage to plant)
Method in brief: as §2

corn (Zea mays) [11] = assay: Test G Post-Emergence Protocol; conditions: Zea mays, post-emergence, 312 h; for plant injury at 15.625 g/ha: 15.625 g ai/ha, evaluated after 13 days (100=total damage to plant; 0=no damage to plant), read-out: Corn damage rating; for plant injury at 62.5 g/ha: 62.5 g ai/ha, read-out: Corn damage rating (100=total damage to plant; 0=no damage to plant); for plant injury at 62.5 g/ha / plant injury at 250 g/ha: evaluated after 13 days; for plant injury at 250 g/ha: 250 g ai/ha, read-out: damage to plant, Corn (100=total damage to plant; 0=no damage to plant)
Method in brief: as §2

[12] = system: velvetleaf (Abutilon theophrasti); assay: Test G Post-Emergence Protocol; conditions: Abutilon theophrasti, post-emergence, 312 h; for pest or weed control at 15.625 g/ha: 15.625 g ai/ha, evaluated after 13 days (100=total damage to plant; 0=no damage to plant), read-out: Velvetleaf damage rating; for pest or weed control at 62.5 g/ha: 62.5 g ai/ha, read-out: Velvetleaf damage rating (100=total damage to plant; 0=no damage to plant); for pest or weed control at 62.5 g/ha / pest or weed control at 250 g/ha: evaluated after 13 days; for pest or weed control at 250 g/ha: 250 g ai/ha, read-out: damage to plant, Velvetleaf (100=total damage to plant; 0=no damage to plant)
Method in brief: as §2

| Structure (SMILES) | pest or weed control at 15.625 g/ha [1] [%] | pest or weed control at 62.5 g/ha [1] [%] | pest or weed control at 250 g/ha [1] [%] | pest or weed control at 15.625 g/ha [2] [%] | pest or weed control at 62.5 g/ha [2] [%] | pest or weed control at 250 g/ha [2] [%] | pest or weed control at 15.625 g/ha [3] [%] | pest or weed control at 62.5 g/ha [3] [%] | pest or weed control at 250 g/ha [3] [%] | pest or weed control at 15.625 g/ha [4] [%] | pest or weed control at 62.5 g/ha [4] [%] | pest or weed control at 250 g/ha [4] [%] | plant injury at 15.625 g/ha (corn (Zea mays) [5]) [%] | plant injury at 62.5 g/ha (corn (Zea mays) [5]) [%] | plant injury at 250 g/ha (corn (Zea mays) [5]) [%] | pest or weed control at 15.625 g/ha [6] [%] | pest or weed control at 62.5 g/ha [6] [%] | pest or weed control at 250 g/ha [6] [%] | pest or weed control at 15.625 g/ha [7] [%] | pest or weed control at 62.5 g/ha [7] [%] | other results |
| --- | --- | --- | --- | --- | --- | --- | --- | --- | --- | --- | --- | --- | --- | --- | --- | --- | --- | --- | --- | --- | --- |
| CN1C[C@@H](c2ccc(C(F)(F)F)cc2)[C@H](C(=O)Nc2ccc(Cl)cc2F)C1=O (racemic) [Compound 1602] | 0 | 30 | 40 | 0 | 30 | 70 | 0 | 0 | 40 | 0 | 0 | 0 | 0 | 0 | 0 | 0 | 0 | 10 | 0 | 50 | pest or weed control at 250 g/ha [7]: 70%; pest or weed control at 15.625 g/ha [8]: 0%; pest or weed control at 62.5 g/ha [8]: 60%; pest or weed control at 250 g/ha [8]: 80%; pest or weed control at 15.625 g/ha [9]: 0%; pest or weed control at 62.5 g/ha [9]: 20%; pest or weed control at 250 g/ha [9]: 40%; pest or weed control at 15.625 g/ha [10]: 10%; pest or weed control at 62.5 g/ha [10]: 50%; pest or weed control at 250 g/ha [10]: 50%; plant injury at 15.625 g/ha (corn (Zea mays) [11]): 0%; plant injury at 62.5 g/ha (corn (Zea mays) [11]): 0%; plant injury at 250 g/ha (corn (Zea mays) [11]): 20%; pest or weed control at 15.625 g/ha [12]: 0%; pest or weed control at 62.5 g/ha [12]: 20%; pest or weed control at 250 g/ha [12]: 40% |
| CN1C[C@@H](c2ccc(C(F)(F)F)cc2)[C@H](C(=O)Nc2nccc(=O)[nH]2)C1=O (racemic) [Compound 1622] | 0 | 0 | 0 | 0 | 0 | 0 | 0 | 0 | 0 | 0 | 0 | 0 | 0 | 0 | 0 | 0 | 0 | 0 | 0 | 0 | pest or weed control at 250 g/ha [7]: 0%; pest or weed control at 15.625 g/ha [8]: 0%; pest or weed control at 62.5 g/ha [8]: 0%; pest or weed control at 250 g/ha [8]: 0%; pest or weed control at 15.625 g/ha [9]: 0%; pest or weed control at 62.5 g/ha [9]: 0%; pest or weed control at 250 g/ha [9]: 0%; pest or weed control at 15.625 g/ha [10]: 0%; pest or weed control at 62.5 g/ha [10]: 0%; pest or weed control at 250 g/ha [10]: 0%; plant injury at 15.625 g/ha (corn (Zea mays) [11]): 0%; plant injury at 62.5 g/ha (corn (Zea mays) [11]): 0%; plant injury at 250 g/ha (corn (Zea mays) [11]): 0%; pest or weed control at 15.625 g/ha [12]: 0%; pest or weed control at 62.5 g/ha [12]: 0%; pest or weed control at 250 g/ha [12]: 0% |
